In patent US8906896B2, “Platinum acridine anti-cancer compounds and methods thereof” (priority 2008, dated 2014):

Experiments:
[1] = H460 xenograft study in nude mice; assay type: in vivo; settings: female, athymic nude, mouse, in vivo, ip, q4d×3, mice; dose B stated to be close to the MTD; read-out: maximum tolerated dose (MTD)
Method: (§1) Xenograft Study. H460 xenografts were established in nude athymic female mice via bilateral subcutaneous injections. Treatment began when the average tumor volume was approximately 100 mm^3. The tumor-bearing mice were randomized depending on tumor volume into three groups of five test animals each: one control group receiving vehicle only, one group treated at 0.1 mg/kg 5d/w×2 (A), and one group treated at 0.5 mg/kg q4d×3 (B). Animal weights and tumor volumes were measured and recorded for 17 days after the first dose was administered. Tumor volumes were determined using the formula:V (mm^3)=d^2×D/2, where d and D are the shortest and longest dimension of the tumor, respectively, and are reported as the sum of both tumors for each test animal. At the end of the study, all animals were euthanized and disposed of according to Standard Operating Procedures (SOPs). Statistical analysis of the growth curves was done using a non-linear polynomial random-coefficient model in SAS Proc Mixed (SAS Institute Inc., Cary, N.C.).
(§2) The antitumor activity of compound 14b was evaluated against H460 bilateral tumors implanted into athymic nude mice. […] Complex 14b was administered intraperitonealy (i.p.) according to the following dosing schedules: (A) 0.1 mg/kg, five days per week for two consecutive weeks (5d/w×2), and (B) 0.5 mg/kg, three doses given at 4-day intervals (q4d×3). The tumor volumes recorded in both treatment groups and in untreated control animals are plotted vs. days of treatment in FIG. 1. At the end of the study, the tumors measured 1834±160, 1798±309, and 1102±319 mm^3 (means±S.E.M.) for the control animals and animals treated according to schedules A and B, respectively.
(§3) Growth curves are shown for untreated control animals (open squares), and mice treated according to schedule A (filled triangles) and schedule B (filled circles). Measurement of tumor volumes began on day 0, and treatment began on day 4. Each data point represents the mean of 5 tumor volumes±S.E.M.

[2] = tested on: H460 NSCLC tumors xenografted into nude mice; assay: H460 xenograft study in nude mice; assay type: in vivo
Method: as §1, §2, §3

NCI-H460 NSCLC cell line [3] = settings: typical values; cited from earlier work
NCI-H460 NSCLC cell line [4] = assay: Cytotoxicity (cell proliferation) assay, NCI-H460; assay type: cell-based
Method: Cytotoxicity Assay. Cytotoxicity studies were carried out according to a standard protocol (Guddneppanavar et al. 2006) using the Celltiter 96 Aqueous Non-Radioactive Cell Proliferation Assay kit (Promega, Madison, Wis.). […] IC50 values were calculated from non-linear curve fits using a sigmoidal dose-response equation in GraphPad Prism (GraphPad Software, La Jolla, Calif.).

CC/C(=[N]\[Pt]([NH2])([NH2])[Cl])N(C)CCNc1c2ccccc2nc2ccccc12 [Compound 14b]
MTD at 17 days [1]: ~0.5 mg/kg | tolerated dose relative to cisplatin ([2]; administered i.p.): an order of magnitude lower than those commonly applied for cisplatin | effect on tumor growth ([2]; schedule A: 0.1 mg/kg i.p. 5d/w×2): no effect on tumor growth | effect on tumor growth rate compared to control group ([2]; schedule B: 0.5 mg/kg i.p. q4d×3, P<0.01): slowed the tumor growth rate significantly

N.N.[Cl][Pt][Cl] [Cisplatin, cis-diamminedichloroplatinum]
IC50 in H460 cells (typical) (NCI-H460 NSCLC cell line [3]): micromolar range | potency in H460 cells relative to the compounds of the invention (fold less potent) (NCI-H460 NSCLC cell line [4]): at least 20 fold
